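Cells were grown in 96-well plates and exposed to each compound for 48 hours at five concentrations; endpoints were interpolated linearly between bracketing concentrations, or set to the highest concentration if not reached. GI50: concentration for 50% inhibition of growth. At the TGI there is no net growth.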
What was measured:
Test in all cases: inhibition of tumour cell growth, NCI panel, 48 h
M14 melanoma = system: M14 melanoma
OVCAR-5 ovarian = system: OVCAR-5 ovarian
MALME-3M melanoma = system: MALME-3M melanoma
SF-295 CNS = system: SF-295 CNS
NCI-H226 lung = system: NCI-H226 lung
HS 578T breast = system: HS 578T breast
HCT-116 colon = system: HCT-116 colon
BT-549 breast = system: BT-549 breast
NCI-H460 lung = system: NCI-H460 lung
MDA-MB-435 = system: MDA-MB-435
HCT-15 colon = system: HCT-15 colon
CCRF-CEM leukemia = system: CCRF-CEM leukemia
UACC-257 melanoma = system: UACC-257 melanoma
A498 renal = system: A498 renal
TK-10 renal = system: TK-10 renal
SW-620 colon = system: SW-620 colon
HOP-92 NSCLC = system: HOP-92 NSCLC
MDA-MB-231 breast = system: MDA-MB-231 breast
K-562 leukemia = system: K-562 leukemia
PC-3 prostate = system: PC-3 prostate
RPMI-8226 leukemia = system: RPMI-8226 leukemia
UO-31 renal = system: UO-31 renal
T-47D breast = system: T-47D breast
SNB-19 CNS = system: SNB-19 CNS
DU-145 prostate = system: DU-145 prostate
SF-539 CNS = system: SF-539 CNS
HL-60(TB) leukemia = system: HL-60(TB) leukemia
OVCAR-8 ovarian = system: OVCAR-8 ovarian
HOP-62 NSCLC = system: HOP-62 NSCLC
MCF7 breast = system: MCF7 breast
SF-268 CNS = system: SF-268 CNS
U251 CNS = system: U251 CNS
SK-OV-3 ovarian = system: SK-OV-3 ovarian
786-0 renal = system: 786-0 renal
SK-MEL-5 melanoma = system: SK-MEL-5 melanoma
IGROV1 ovarian = system: IGROV1 ovarian
RXF 393 renal = system: RXF 393 renal
EKVX NSCLC = system: EKVX NSCLC
COLO 205 colon = system: COLO 205 colon
SK-MEL-2 melanoma = system: SK-MEL-2 melanoma
UACC-62 melanoma = system: UACC-62 melanoma
NCI/ADR-RES ovarian = system: NCI/ADR-RES ovarian
KM12 colon = system: KM12 colon
NCI-H522 lung = system: NCI-H522 lung
SK-MEL-28 melanoma = system: SK-MEL-28 melanoma
HCC-2998 colon = system: HCC-2998 colon
ACHN renal = system: ACHN renal
SN12C renal = system: SN12C renal
LOX IMVI melanoma = system: LOX IMVI melanoma
MDA-MB-468 breast = system: MDA-MB-468 breast
OVCAR-4 ovarian = system: OVCAR-4 ovarian
MOLT-4 leukemia = system: MOLT-4 leukemia
HT29 colon = system: HT29 colon
SR leukemia = system: SR leukemia
OVCAR-3 ovarian = system: OVCAR-3 ovarian
SNB-75 CNS = system: SNB-75 CNS
NCI-H23 lung = system: NCI-H23 lung
CAKI-1 renal = system: CAKI-1 renal
A549 NSCLC = system: A549 NSCLC

## COc1cc2c3c(n(CCCn4ccnc4)c(=O)c2cc1OC)-c1nc2c(cc1C3=O)OCO2
M14 melanoma
  GI50: 0.0554 µM
  TGI: > 69.3 µM
OVCAR-5 ovarian
  GI50: > 36.7 µM
  TGI: > 100 µM
MALME-3M melanoma
  GI50: 13.1 µM
  TGI: > 100 µM
SF-295 CNS
  GI50: 0.0351 µM
  TGI: 12.8 µM
NCI-H226 lung
  GI50: 0.124 µM
  TGI: > 100 µM
HS 578T breast
  GI50: > 100 µM
  TGI: > 100 µM
HCT-116 colon
  GI50: 0.169 µM
  TGI: > 100 µM
BT-549 breast
  GI50: 0.356 µM
  TGI: 26.3 µM
NCI-H460 lung
  GI50: 0.0325 µM
  TGI: > 36.4 µM
MDA-MB-435
  GI50: 4.7 µM
  TGI: > 100 µM
HCT-15 colon
  GI50: 13.1 µM
  TGI: > 100 µM
CCRF-CEM leukemia
  GI50: 0.028 µM
UACC-257 melanoma
  TGI: > 100 µM
A498 renal
  GI50: > 100 µM
  TGI: > 100 µM
TK-10 renal
  GI50: > 100 µM
  TGI: > 100 µM
SW-620 colon
  GI50: 0.207 µM
  TGI: > 100 µM
HOP-92 NSCLC
  GI50: > 47.1 µM
  TGI: > 100 µM
MDA-MB-231 breast
  GI50: 45.1 µM
  TGI: > 100 µM
K-562 leukemia
  GI50: 0.0742 µM
  TGI: > 100 µM
PC-3 prostate
  GI50: 32.2 µM
  TGI: > 100 µM
RPMI-8226 leukemia
  GI50: 0.852 µM
  TGI: > 100 µM
UO-31 renal
  GI50: 0.197 µM
  TGI: > 100 µM
T-47D breast
  GI50: 0.0376 µM
  TGI: > 100 µM
SNB-19 CNS
  GI50: 0.0685 µM
  TGI: > 100 µM
DU-145 prostate
  GI50: 0.0616 µM
  TGI: > 100 µM
SF-539 CNS
  GI50: 0.0363 µM
  TGI: 0.525 µM
HL-60(TB) leukemia
  GI50: 0.0485 µM
  TGI: > 100 µM
OVCAR-8 ovarian
  GI50: 0.803 µM
  TGI: > 100 µM
HOP-62 NSCLC
  GI50: 0.0339 µM
  TGI: > 100 µM
MCF7 breast
  GI50: 0.0247 µM
  TGI: 16.3 µM
SF-268 CNS
  GI50: 0.0769 µM
  TGI: > 100 µM
U251 CNS
  GI50: 0.0621 µM
  TGI: > 100 µM
SK-OV-3 ovarian
  GI50: 0.0459 µM
  TGI: > 100 µM
786-0 renal
  GI50: 0.105 µM
SK-MEL-5 melanoma
  GI50: 0.07 µM
  TGI: 4.63 µM
IGROV1 ovarian
  GI50: > 52 µM
  TGI: > 100 µM
RXF 393 renal
  GI50: 0.335 µM
  TGI: > 100 µM
EKVX NSCLC
  GI50: > 66.4 µM
  TGI: > 100 µM
COLO 205 colon
  GI50: 12.6 µM
  TGI: > 100 µM
SK-MEL-2 melanoma
  GI50: > 100 µM
  TGI: > 100 µM
UACC-62 melanoma
  GI50: 0.0359 µM
  TGI: > 100 µM
NCI/ADR-RES ovarian
  GI50: > 100 µM
  TGI: > 100 µM
KM12 colon
  GI50: > 100 µM
  TGI: > 100 µM
NCI-H522 lung
  GI50: 1.07 µM
  TGI: 37.6 µM
SK-MEL-28 melanoma
  GI50: > 100 µM
  TGI: > 100 µM
HCC-2998 colon
  GI50: 19.4 µM
  TGI: > 100 µM
ACHN renal
  GI50: 0.0389 µM
SN12C renal
  GI50: 0.134 µM
  TGI: > 100 µM
LOX IMVI melanoma
  GI50: 0.0448 µM
  TGI: 5.83 µM
MDA-MB-468 breast
  GI50: 0.028 µM
  TGI: 0.115 µM
OVCAR-4 ovarian
  GI50: > 100 µM
  TGI: > 100 µM
MOLT-4 leukemia
  GI50: 0.0356 µM
  TGI: > 100 µM
HT29 colon
  GI50: 0.637 µM
  TGI: > 100 µM
SR leukemia
  GI50: 0.0274 µM
  TGI: 24.5 µM
OVCAR-3 ovarian
  GI50: 38.5 µM
  TGI: > 100 µM
SNB-75 CNS
  GI50: 0.03 µM
  TGI: > 100 µM
NCI-H23 lung
  GI50: 0.0442 µM
  TGI: 11.3 µM
CAKI-1 renal
  GI50: 0.04 µM
  TGI: > 100 µM
A549 NSCLC
  GI50: 3.31 µM
  TGI: > 100 µM

Source: PubChem BioAssay (NCI)
